test: Ability to inhibit Human cytomegalovirus (HCMV) protease activity

Structure (SMILES)	IC50 [µM]
CC(=O)C=CN1C(=O)[C@@H](C)C2[C@@H]1CCN2C(=O)OCc1ccccc1 (stereo partly drawn) [6-Methyl-5-oxo-4-(3-oxo-but-1-enyl)-hexahydro-pyrrolo[3,2-b]pyrrole-1-carboxylic acid benzyl ester]	> 500
C[C@@H]1C(=O)N(c2ccc([N+](=O)[O-])cc2[N+](=O)[O-])[C@H]2CCN(C(=O)OCc3ccccc3)C12 (stereo partly drawn) [4-(2,4-Dinitro-phenyl)-6-methyl-5-oxo-hexahydro-pyrrolo[3,2-b]pyrrole-1-carboxylic acid benzyl ester]	500
C[C@@H]1C(=O)N(C(=O)n2cccc2)[C@H]2CCN(C(=O)OCc3ccccc3)C12 (stereo partly drawn) [6-Methyl-5-oxo-4-(pyrrole-1-carbonyl)-hexahydro-pyrrolo[3,2-b]pyrrole-1-carboxylic acid benzyl ester]	250
